# Reference: ChEMBL document CHEMBL1201862, “PubChem BioAssay data set” (2004)
#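 Grown in 96-well plates, cells were treated for 48 hours with each compound at five concentrations. Insufficient inhibition: endpoint recorded as highest concentration tested. At the GI50, growth is halved.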 The source made the active and inactive calls. Rule as the data show it: active = GI50 up to about 1.1 µM and inactive = higher.
# Key:
# Test in all cases: growth of human tumour cells (NCI), 48 h
# RXF 631 = system: RXF 631
# DMS-114 = system: DMS-114
# SNB-78 = system: SNB-78
# M19-MEL = system: M19-MEL
# KM-20L2 = system: KM-20L2
# XF498 = system: XF498
# LXFL 529 = system: LXFL 529
# DMS-273 = system: DMS-273
# DLD-1 = system: DLD-1
Structure (SMILES),GI50 (RXF 631),GI50 (DMS-114),GI50 (SNB-78),GI50 (M19-MEL),GI50 (KM-20L2),GI50 (XF498),GI50 (LXFL 529),GI50 (DMS-273),GI50 (DLD-1)
Cc1cc(C)cc(NC(N)=S)c1,> 100 µM (inactive),45.3 µM (inactive),> 100 µM (inactive),> 100 µM (inactive),> 100 µM (inactive),46.5 µM (inactive),> 100 µM (inactive),> 100 µM (inactive),> 100 µM (inactive)
O=C(O)C1Cc2[nH]cnc2CN1 (centres undefined),> 100 µM (inactive),> 100 µM (inactive),> 100 µM (inactive),> 100 µM (inactive),> 100 µM (inactive),–,> 100 µM (inactive),> 100 µM (inactive),> 100 µM (inactive)
O=C(Cn1ccnc1[N+](=O)[O-])N(CCO)CCO,–,> 1250 µM (inactive),> 1250 µM (inactive),> 1250 µM (inactive),> 1250 µM (inactive),> 58.1 µM (inactive),–,> 1250 µM (inactive),> 1250 µM (inactive)
Cc1ccc(C(=O)OCC(C)C)cc1/N=N/N(C)C,–,–,64.9 µM (inactive),44 µM (inactive),38.7 µM (inactive),–,> 100 µM (inactive),45.5 µM (inactive),45.5 µM (inactive)
Cc1c2c(c(C)c3c1[nH]c1ccccc13)CN(C)CC2,22.8 µM (inactive),15.1 µM (inactive),21.9 µM (inactive),16.6 µM (inactive),18.8 µM (inactive),–,14.9 µM (inactive),16.7 µM (inactive),34.4 µM (inactive)
CCOC(=O)/C(=C/c1ccc(C(F)(F)F)cc1)N(CC)CC,> 100 µM (inactive),30.8 µM (inactive),81.8 µM (inactive),–,–,58.1 µM (inactive),51.6 µM (inactive),–,54.1 µM (inactive)
COC(=O)c1c[nH]cc1CCCCc1c[nH]cc1C(=O)OC,> 100 µM (inactive),–,> 100 µM (inactive),> 100 µM (inactive),> 100 µM (inactive),50 µM (inactive),–,> 100 µM (inactive),–
C=CCc1cc(OC)c2c(c1)C(O)CC(c1ccccc1)O2 (centres undefined),> 100 µM (inactive),> 100 µM (inactive),> 100 µM (inactive),> 100 µM (inactive),78.3 µM (inactive),–,> 100 µM (inactive),> 100 µM (inactive),> 100 µM (inactive)
NC(=O)/C=C/c1c[nH]c2nccnc12,–,2.22 µM (inactive),–,3.27 µM (inactive),0.0723 µM (active),–,0.103 µM (active),3.52 µM (inactive),2.13 µM (inactive)
CC12c3ccccc3C(OC=O)(c3ccccc31)C1(C)c3ccccc3C2(OC=O)c2ccccc21,> 100 µM (inactive),> 100 µM (inactive),> 100 µM (inactive),> 100 µM (inactive),> 100 µM (inactive),–,> 100 µM (inactive),75.7 µM (inactive),> 100 µM (inactive)
CCC(C)NC1=C(NC(C)=O)C(=O)c2ccccc2C1=O (centres undefined),–,28.4 µM (inactive),> 75 µM (inactive),48.3 µM (inactive),> 75 µM (inactive),> 75 µM (inactive),54.8 µM (inactive),27.6 µM (inactive),27.4 µM (inactive)
CCOC(=O)C(Cc1ccc([N+](=O)[O-])cc1)NC(=O)CC1c2ccccc2-c2ccccc21 (centres undefined),–,37.6 µM (inactive),23.8 µM (inactive),18.9 µM (inactive),> 100 µM (inactive),20.8 µM (inactive),> 100 µM (inactive),63.5 µM (inactive),> 100 µM (inactive)
COc1ccc(N2C(=O)C3c4[nH]c5ccccc5c4C4CCCCCCC4C3C2=O)cc1 (centres undefined),–,8.71 µM (inactive),27.8 µM (inactive),23.3 µM (inactive),28.8 µM (inactive),10.4 µM (inactive),6.08 µM (inactive),5.35 µM (inactive),11.2 µM (inactive)
CCOC(=O)CCC1(C(=O)OC)CCCC1=O (centres undefined),–,> 100 µM (inactive),> 100 µM (inactive),> 100 µM (inactive),> 100 µM (inactive),> 100 µM (inactive),> 100 µM (inactive),> 100 µM (inactive),> 100 µM (inactive)
